Results published in patent US11993599B2, “Therapeutic compounds” (Genentech, Inc., priority 2021, dated 2024).

Assays:
[1] = biological target: T1, BRG1 (Homo sapiens, UniProt P51532); experiment: Immunofluorescence assay for BRG1 degradation in SW1573 cells; type: cell-based; conditions: 20 hours incubation; for DC50: immunofluorescence mean nuclear signal, read-out: BRG1 IF Degradation IC50; for Dmax: SW1573, 20 h, normalized to a known degrader control, read-out: BRG1 IF Degradation Sinf (%)
T1 construct: either BRM primary antibody (Cell signaling Cat #11966) or BRG primary antibody (Abcam, ab 110641); endogenous in cells; host or cells: SW1573
Protocol: (§1) Example B-2: Immunofluorescence Assay for BRM and BRG1 Degraders
(§2) SW1573 cells were seeded at 3000 cells/well in 384 well plates. The next day, compounds were added using an Echo dispenser. After 20 hours of incubation with compound, cells were fixed with 4% formaldehyde then permeabilized with 0.2% Triton X-100 and blocked with 10% FCS. Fixed and permeabilized cells were treated overnight at 4° C. with either BRM primary antibody (Cell signaling Cat #11966) or BRG primary antibody (Abcam, ab 110641). Finally, cells were treated with fluorescently labeled secondary antibodies for 1 hr (Donkey anti-Rabbit IgG AF488, Life Technologies, A21206) and Hoechst nuclear stain (#H3569) was added for 30 minutes. Cells were washed with PBS in between each step and before imaging on an Opera Phenix microscope (Perkin Elmer). Harmony software (Perking Elmer) was used to quantify the mean nuclear signaling intensity of BRM or BRG signaling per cell in each well. Dose responses were determined from the concentration dependent response of mean nuclear signal intensity with data normalized to a known degrader control. Dose response curves were fit to a floating maximum to allow for calculation of the Dmax.
(§3) Note that, in Table 5, the “Compound Number” corresponds to that used in Table 1. In Table 5, for BRM and BRG1 IF degradation IC50 (μM): A indicates <0.010 μM, B indicates 0.010-0.10 μM, and C indicates >0.10 μM; and for BRM and BRG1 IF degradation Sinf % D indicates 0-−30%, E indicates −30%-−70%, F indicates −71%-−120% and ND indicates the value was not determined.

[2] = biological target: BRM (Homo sapiens, UniProt P51531); experiment: Immunofluorescence assay for BRM degradation in SW1573 cells; type: cell-based; set-up: treated overnight at 4° C. with either BRM primary antibody (Cell signaling Cat #11966) or BRG primary antibody; endogenous in cells; host or cells: SW1573; conditions: 20 hours incubation; for DC50: immunofluorescence mean nuclear signal, read-out: BRM IF Degradation IC50; for BRM IF Degradation Sinf (%): normalized to a known degrader control
Protocol: as §1, §2, §3

T1 sequence (P51532 whole entry): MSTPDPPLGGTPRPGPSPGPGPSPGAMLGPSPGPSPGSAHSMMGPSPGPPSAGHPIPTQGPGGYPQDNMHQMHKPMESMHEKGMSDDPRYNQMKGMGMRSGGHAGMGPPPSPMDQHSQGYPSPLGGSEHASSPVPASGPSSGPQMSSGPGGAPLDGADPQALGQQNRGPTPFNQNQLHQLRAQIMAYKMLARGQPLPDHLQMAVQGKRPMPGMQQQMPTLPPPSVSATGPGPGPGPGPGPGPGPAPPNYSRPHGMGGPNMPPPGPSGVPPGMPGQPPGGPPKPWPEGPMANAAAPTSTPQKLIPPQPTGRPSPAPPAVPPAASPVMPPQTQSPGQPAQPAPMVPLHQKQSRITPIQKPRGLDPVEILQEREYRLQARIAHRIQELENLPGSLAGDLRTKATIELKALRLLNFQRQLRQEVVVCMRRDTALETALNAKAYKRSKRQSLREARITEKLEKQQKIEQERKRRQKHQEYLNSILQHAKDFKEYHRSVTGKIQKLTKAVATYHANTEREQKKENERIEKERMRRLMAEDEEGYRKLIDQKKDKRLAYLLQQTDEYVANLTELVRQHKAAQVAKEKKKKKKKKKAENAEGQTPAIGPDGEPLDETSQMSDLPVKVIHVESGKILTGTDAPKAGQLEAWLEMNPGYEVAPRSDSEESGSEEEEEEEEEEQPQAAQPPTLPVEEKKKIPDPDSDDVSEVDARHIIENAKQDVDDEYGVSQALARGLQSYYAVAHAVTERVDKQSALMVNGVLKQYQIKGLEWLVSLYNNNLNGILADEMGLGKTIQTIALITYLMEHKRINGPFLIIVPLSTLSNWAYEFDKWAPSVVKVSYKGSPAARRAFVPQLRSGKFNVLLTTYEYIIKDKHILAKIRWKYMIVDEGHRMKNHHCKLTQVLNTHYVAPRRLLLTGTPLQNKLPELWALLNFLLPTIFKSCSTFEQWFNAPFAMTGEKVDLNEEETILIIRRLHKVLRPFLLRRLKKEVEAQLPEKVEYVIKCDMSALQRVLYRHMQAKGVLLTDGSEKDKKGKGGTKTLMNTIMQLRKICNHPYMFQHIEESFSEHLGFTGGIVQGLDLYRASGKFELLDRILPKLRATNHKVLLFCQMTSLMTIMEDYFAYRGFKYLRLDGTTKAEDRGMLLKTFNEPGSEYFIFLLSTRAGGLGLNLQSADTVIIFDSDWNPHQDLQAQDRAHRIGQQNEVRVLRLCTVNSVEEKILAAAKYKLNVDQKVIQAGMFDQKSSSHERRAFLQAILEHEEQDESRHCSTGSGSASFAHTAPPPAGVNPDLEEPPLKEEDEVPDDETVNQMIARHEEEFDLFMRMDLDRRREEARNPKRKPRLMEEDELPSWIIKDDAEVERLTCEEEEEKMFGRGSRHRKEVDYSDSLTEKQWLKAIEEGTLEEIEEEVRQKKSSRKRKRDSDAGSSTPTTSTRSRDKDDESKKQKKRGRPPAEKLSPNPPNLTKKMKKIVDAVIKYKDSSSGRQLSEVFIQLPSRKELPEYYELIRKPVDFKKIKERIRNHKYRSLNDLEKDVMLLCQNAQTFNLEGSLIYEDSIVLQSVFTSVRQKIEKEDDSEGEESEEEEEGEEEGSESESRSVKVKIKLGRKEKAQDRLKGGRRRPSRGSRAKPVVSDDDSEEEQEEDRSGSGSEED
Chain of BRM (P51531 whole entry): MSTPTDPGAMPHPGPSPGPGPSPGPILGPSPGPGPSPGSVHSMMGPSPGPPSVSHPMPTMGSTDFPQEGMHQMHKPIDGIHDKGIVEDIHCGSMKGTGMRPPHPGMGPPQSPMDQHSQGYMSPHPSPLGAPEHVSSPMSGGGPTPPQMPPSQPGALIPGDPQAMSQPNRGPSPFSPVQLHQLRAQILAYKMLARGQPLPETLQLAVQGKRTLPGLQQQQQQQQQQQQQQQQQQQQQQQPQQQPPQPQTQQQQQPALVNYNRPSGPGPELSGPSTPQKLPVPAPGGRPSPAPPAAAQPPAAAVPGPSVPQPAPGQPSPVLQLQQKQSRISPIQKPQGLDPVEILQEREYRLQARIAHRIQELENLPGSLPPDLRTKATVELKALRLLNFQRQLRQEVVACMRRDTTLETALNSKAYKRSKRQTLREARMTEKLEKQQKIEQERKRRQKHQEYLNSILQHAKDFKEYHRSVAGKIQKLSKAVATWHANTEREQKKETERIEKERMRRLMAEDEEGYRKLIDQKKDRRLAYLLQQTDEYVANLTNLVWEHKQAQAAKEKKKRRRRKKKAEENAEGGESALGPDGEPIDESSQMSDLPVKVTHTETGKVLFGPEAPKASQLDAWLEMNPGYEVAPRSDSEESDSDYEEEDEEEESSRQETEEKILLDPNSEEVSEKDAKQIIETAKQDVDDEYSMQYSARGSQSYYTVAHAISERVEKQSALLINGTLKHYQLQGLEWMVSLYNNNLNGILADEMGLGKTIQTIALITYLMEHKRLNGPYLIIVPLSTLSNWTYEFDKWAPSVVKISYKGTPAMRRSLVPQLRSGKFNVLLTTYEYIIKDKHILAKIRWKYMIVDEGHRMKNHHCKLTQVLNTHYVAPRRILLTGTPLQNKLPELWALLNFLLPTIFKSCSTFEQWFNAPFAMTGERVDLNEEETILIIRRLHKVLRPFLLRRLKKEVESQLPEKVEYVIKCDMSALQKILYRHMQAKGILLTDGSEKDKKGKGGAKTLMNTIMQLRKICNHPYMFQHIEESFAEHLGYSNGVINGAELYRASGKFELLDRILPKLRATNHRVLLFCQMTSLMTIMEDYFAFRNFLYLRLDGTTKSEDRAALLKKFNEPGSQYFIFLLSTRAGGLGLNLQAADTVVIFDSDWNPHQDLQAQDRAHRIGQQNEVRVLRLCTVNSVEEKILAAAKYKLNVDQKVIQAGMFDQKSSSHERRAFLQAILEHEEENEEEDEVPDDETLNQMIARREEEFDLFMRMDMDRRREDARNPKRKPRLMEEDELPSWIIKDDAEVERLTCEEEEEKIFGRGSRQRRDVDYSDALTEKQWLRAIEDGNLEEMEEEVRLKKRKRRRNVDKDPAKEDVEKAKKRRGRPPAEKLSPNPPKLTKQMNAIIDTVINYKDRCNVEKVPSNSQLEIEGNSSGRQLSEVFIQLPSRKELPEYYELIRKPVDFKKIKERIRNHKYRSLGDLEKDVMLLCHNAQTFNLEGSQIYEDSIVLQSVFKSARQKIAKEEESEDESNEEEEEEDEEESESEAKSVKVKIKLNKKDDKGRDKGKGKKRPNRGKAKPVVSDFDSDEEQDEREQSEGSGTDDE

| Compound | DC50 [1] [nM] | Dmax [1] [%] | DC50 [2] [nM] | BRM IF Degradation Sinf (%) [2] |
| --- | --- | --- | --- | --- |
| Nc1nnc(-c2ccccc2O)cc1N1CC2CCC(C1)N2c1ccnc(C#CCN2CC3(COCCO3)C2)c1 [Compound 160, 2-[6-amino-5-[8-[2-[3-(5,8-dioxa-2-azaspiro[3.5]nonan-2-yl)prop-1-ynyl]-4-pyridyl]-3,8-diazabicyclo[3.2.1]octan-3-yl]pyridazin-3-yl]phenol] | 10 to 100 | 0 to 30 | 10 to 100 | E (E indicates −30%-−70%) |
| Nc1nnc(-c2ccccc2O)cc1N1CC2CCC(C1)N2c1ccnc(C#CCN2CCOC3CCNCC32)c1 (stereo not shown) [Compound 147, 2-[5-[8-[2-[3-(2,3,4a,5,6,7,8,8a-octahydropyrido[4,3-b][l,4]oxazin-4-yl)prop-1-ynyl]-4-pyridyl]-3,8-diazabicyclo[3.2.1]octan-3-yl]-6-amino-pyridazin-3-yl]phenol] | > 100 | 30 to 70 | > 100 | E (E indicates −30%-−70%) |
| Nc1nnc(-c2ccccc2O)cc1N1CC2CCC(C1)N2c1ccnc(C#CCN2C3CCCC2COC3)c1 [Compound 111, 2-[6-amino-5-[8-[2-[3-(3-oxa-9-azabicyclo[3.3.1]nonan-9-yl)prop-1-ynyl]-4-pyridyl]-3,8-diazabicyclo[3.2.1]octan-3-yl]pyridazin-3-yl]phenol] | < 10 | 0 to 30 | < 10 | E (E indicates −30%-−70%) |
| Nc1nnc(-c2ccccc2O)cc1N1CC2CCC(C1)N2c1ccnc(C#CCN2CC3COCC3C2)c1 (stereo not shown) [Compound 76, 2-[5-[8-[2-[3-(1,3,3a,4,6,6a-hexahydrofuro[3,4-c]pyrrol-5-yl)prop-1-ynyl]-4-pyridyl]-3,8-diazabicyclo[3.2.1]octan-3-yl]-6-amino-pyridazin-3-yl]phenol] | < 10 | 0 to 30 | < 10 | E (E indicates −30%-−70%) |
| CC1CCN(CC#Cc2cc(N3C4CCC3CN(c3cc(-c5ccccc5O)nnc3N)C4)ccn2)CC1 [Compound 138, 2-[6-amino-5-[8-[2-[3-(4-methyl-1-piperidyl)prop-1-ynyl]-4-pyridyl]-3,8-diazabicyclo[3.2.1]octan-3-yl]pyridazin-3-yl]phenol] | < 10 | 30 to 70 | 10 to 100 | E (E indicates −30%-−70%) |
| Nc1nnc(-c2ccccc2O)cc1N1CC2CCC(C1)N2c1ccnc(C#CCN2CCC(N3CCOCC3)C2)c1 (stereo not shown) [Compound 80, 2-[6-amino-5-[8-[2-[3-(3-morpholinopyrrolidin-1-yl)prop-1-ynyl]-4-pyridyl]-3,8-diazabicyclo[3.2.1]octan-3-yl]pyridazin-3-yl]phenol] | < 10 | 0 to 30 | 10 to 100 | E (E indicates −30%-−70%) |
| CC1(O)CCN(CC#Cc2cc(N3C4CCC3CN(c3cc(-c5ccccc5O)nnc3N)C4)ccn2)C1 (stereo not shown) [Compound 62, 1-[3-[4-[3-[3-amino-6-(2-hydroxyphenyl)pyridazin-4-yl]-3,8-diazabicyclo[3.2.1]octan-8-yl]-2-pyridyl]prop-2-ynyl]-3-methyl-pyrrolidin-3-ol] | < 10 | 30 to 70 | < 10 | E (E indicates −30%-−70%) |
| Nc1nnc(-c2ccccc2O)cc1N1CC2CCC(C1)N2c1ccnc(C#CCN2CCc3ccccc3CC2)c1 [Compound 202, 2-[6-amino-5-[8-[2-[3-(1,2,4,5-tetrahydro-3-benzazepin-3-yl)prop-1-ynyl]-4-pyridyl]-3,8-diazabicyclo[3.2.1]octan-3-yl]pyridazin-3-yl]phenol] | 10 to 100 | 30 to 70 | 10 to 100 | E (E indicates −30%-−70%) |
| Nc1nnc(-c2ccccc2O)cc1N1CC2CCC(C1)N2c1ccnc(C#CCN2CCC3OCCC3C2)c1 (stereo not shown) [Compound 145, 2-[5-[8-[2-[3-(3,3a,4,6,7,7a-hexahydro-2H-furo[3,2-c]pyridin-5-yl)prop-1-ynyl]-4-pyridyl]-3,8-diazabicyclo[3.2.1]octan-3-yl]-6-amino-pyridazin-3-yl]phenol] | < 10 | 0 to 30 | < 10 | E (E indicates −30%-−70%) |
| CC1CN(CC#Cc2cc(N3C4CCC3CN(c3cc(-c5ccccc5O)nnc3N)C4)ccn2)C1C (stereo not shown) [Compound 180, 2-[6-amino-5-[8-[2-[3-(2,3-dimethylazetidin-1-yl)prop-1-ynyl]-4-pyridyl]-3,8-diazabicyclo[3.2.1]octan-3-yl]pyridazin-3-yl]phenol] | < 10 | 30 to 70 | < 10 | E (E indicates −30%-−70%) |
| Nc1nnc(-c2ccccc2O)cc1N1CC2CCC(C1)N2c1ccnc(C#CCN2CCCCC(O)C2)c1 (stereo not shown) [Compound 242, 1-[3-[4-[3-[3-amino-6-(2-hydroxyphenyl)pyridazin-4-yl]-3,8-diazabicyclo[3.2.1]octan-8-yl]-2-pyridyl]prop-2-ynyl]azepan-3-ol] | < 10 | 30 to 70 | < 10 | F (F indicates −71%-−120%) |
| Nc1nnc(-c2ccccc2O)cc1N1CC2CCC(C1)N2c1ccnc(C#CCN2C3COCC2CC(F)C3)c1 (stereo not shown) [Compound 144, 2-[6-amino-5-[8-[2-[3-(7-fluoro-3-oxa-9-azabicyclo[3.3.1]nonan-9-yl)prop-1-ynyl]-4-pyridyl]-3,8-diazabicyclo[3.2.1]octan-3-yl]pyridazin-3-yl]phenol] | 10 to 100 | 0 to 30 | > 100 | E (E indicates −30%-−70%) |
| Nc1nnc(-c2ccccc2O)cc1N1CC2CCC(C1)N2c1ccnc(C#CCN2CC3(C2)CC3(F)F)c1 [Compound 151, 2-[6-amino-5-[8-[2-[3-(2,2-difluoro-5-azaspiro[2.3]hexan-5-yl)prop-1-ynyl]-4-pyridyl]-3,8-diazabicyclo[3.2.1]octan-3-yl]pyridazin-3-yl]phenol] | < 10 | 0 to 30 | < 10 | E (E indicates −30%-−70%) |
| CC1CCN(CC#Cc2cc(N3C4CCC3CN(c3cc(-c5ccccc5O)nnc3N)C4)ccn2)CCC1=O (stereo not shown) [Compound 198, 1-[3-[4-[3-[3-amino-6-(2-hydroxyphenyl)pyridazin-4-yl]-3,8-diazabicyclo[3.2.1]octan-8-yl]-2-pyridyl]prop-2-ynyl]-5-methyl-azepan-4-one] | – | – | < 10 | E (E indicates −30%-−70%) |
| Nc1nnc(-c2ccccc2O)cc1N1CC2CCC(C1)N2c1ccnc(C#CCCN2CCCCC2)c1 [Compound 182, 2-[6-amino-5-[8-[2-[4-(1-piperidyl)but-1-ynyl]-4-pyridyl]-3,8-diazabicyclo[3.2.1]octan-3-yl]pyridazin-3-yl]phenol] | – | – | > 100 | F (F indicates −71%-−120%) |
| Nc1nnc(-c2ccccc2O)cc1N1CC2CCC(C1)N2c1ccnc(C#CCN2CC3C4CCC(C4)C32)c1 (stereo not shown) [Compound 220, 2-[6-amino-5-[8-[2-[3-(3-azatricyclo[4.2.1.02,5]nonan-3-yl)prop-1-ynyl]-4-pyridyl]-3,8-diazabicyclo[3.2.1]octan-3-yl]pyridazin-3-yl]phenol] | – | – | > 100 | E (E indicates −30%-−70%) |
| Nc1nnc(-c2ccccc2O)cc1N1CC2CCC(C1)N2c1ccnc(/C=C/CN2CCCCCC2)c1 [Compound 248, (E)-2-(6-amino-5-(8-(2-(3-(azepan-1-yl)prop-1-en-1-yl)pyridin-4-yl)-3,8-diazabicyclo[3.2.1]octan-3-yl)pyridazin-3-yl)phenol] | – | – | < 10 | E (E indicates −30%-−70%) |
| CC1(C)CC(O)CCN(CC#Cc2cc(N3C4CCC3CN(c3cc(-c5ccccc5O)nnc3N)C4)ccn2)C1 (stereo not shown) [Compound 213, 1-[3-[4-[3-[3-amino-6-(2-hydroxyphenyl)pyridazin-4-yl]-3,8-diazabicyclo[3.2.1]octan-8-yl]-dimethyl-azepan-4-ol 2-pyridyl]prop-2-ynyl]-6,6-] | – | – | 10 to 100 | E (E indicates −30%-−70%) |
| Nc1nnc(-c2ccccc2O)cc1N1CC2CCC(C1)N2c1ccnc(C#CCN2CCCN(c3ccncc3)CC2)c1 [Compound 204, 2-[6-amino-5-[8-[2-[3-[4-(4-pyridyl)-1,4-diazepan-1-yl]prop-1-ynyl]-4-pyridyl]-3,8-diazabicyclo[3.2.1]octan-3-yl]pyridazin-3-yl]phenol] | – | – | 10 to 100 | E (E indicates −30%-−70%) |
